The test system of one experiment is C. albicans. Put plainly: MIC, visible-light-activated MMs and conventional antifungals, C. albicans. It is filed as cell-based, Candida albicans (ATCC 18804). As to conditions: Candida albicans, read-out: MIC of antifungal agent. Here is the method:
C. albicans cell suspensions were incubated with increasing concentrations of MMs and irradiated with 405-nm light at 292 mW cm^−2 for 5 min (87.6 J cm^−2). The minimum inhibitory concentration (MIC) was defined as the MM concentration resulting in no visible fungal growth after irradiation with 87.6 J cm^−2 of 405-nm light.
(§1) Cell suspensions for susceptibility testing (MMs and conventional antifungals) were prepared per the Clinical & Laboratory Standards Institute (CLSI) guidelines (CLSI, 2017; CLSI, 2008). Before testing, yeasts (C. albicans and S. cerevisiae) were sub-cultured in Sabouraud Dextrose Agar-Emmons Modification (SDAE) plates and grown for 24 h at 30 °C. Five independent colonies from 24-h-old plates were collected and diluted to ~10^4 colony forming units (CFU) per mL in sterile saline (CLSI, 2017). Molds (A. fumigatus and the dermatophytes T. rubrum and M. gypseum) were sub-cultured on SDAE medium and incubated for 7 days at 28 °C. Conidia were recovered by covering the plates with sterile distilled water and scraping the colonies. The suspensions were filtered (8-μm pore size) and diluted in saline to ~10^4 CFU mL^−1 (Santos and Hamdan, 2005).
(§2) After a 30-min incubation in the dark, cell suspensions were transferred to small, sterilized glass beakers, which were then placed in a water bath. Each sample was irradiated with 405-nm light at 292 mW cm^−2 for 5 min, corresponding to a light dose of 87.6 J cm^−2, determined using an S415C thermal power sensor (Thorlabs, Newton, MA, USA). During irradiation, the cell suspensions were agitated with a small metal stirrer. A thermocouple probe (model SC-TT-K-30-36-PP; Omega Engineering, Inc., Stanford, CT, USA) was used to monitor the temperature during irradiation. Irradiated cell suspensions were inoculated in 3-(N-morpholino) propanesulfonic acid (MOPS)-buffered Roswell Park Memorial Institute Medium (RPMI) 1640 (pH 7.0). Tubes were incubated at 30 ° C for 48 h (yeasts) and 28 ° C for 7 days (molds). The antifungal or MM concentration resulting in no visible growth was defined as the minimum inhibitory concentration (MIC) (CLSI, 2017; CLSI, 2008). Similarly prepared cell suspensions were used to determine the MIC of conventional antifungals.

For the next experiment, the system named is S. cerevisiae. Kind of experiment: MIC, MMs and antifungals, S. cerevisiae. The class given is cell-based, Saccharomyces cerevisiae (ATCC 13007). The note with it: Saccharomyces cerevisiae, broth microdilution, read-out: MIC of antifungal agent. Here is the method:
as §1, §2

The test system of a further experiment is A. fumigatus. Put plainly: MIC, MMs and antifungals, A. fumigatus. It is filed as cell-based, Aspergillus fumigatus (ATCC 1022). As to conditions: Aspergillus fumigatus, read-out: MIC of antifungal agent. Here is the method: as §1
After a 30-min incubation in the dark, cell suspensions were transferred to small, sterilized glass beakers, which were then placed in a water bath. Each sample was irradiated with 405-nm light at 292 mW cm^−2 for 5 min, corresponding to a light dose of 87.6 J cm^−2, determined using an S415C thermal power sensor (Thorlabs, Newton, MA, USA). During irradiation, the cell suspensions were agitated with a small metal stirrer. […]

Experiment [1] deals with biofilms of P. aeruginosa and S. aureus. Kind of experiment: Biofilm total bacterial cell number (acridine orange). It is filed as cell-based, Pseudomonas aeruginosa, Staphylococcus aureus. The note with it: 2×MIC, vs untreated controls. Here is the method:
(§3) This combination of methods is effective at evaluating the antibiofilm potential of chemicals (Stiefel et al., 2016). P. aeruginosa and S. aureus were grown overnight in tryptic soy broth (TSB) medium. The overnight cultures were diluted in 1:100 in fresh media and 100 μL aliquots were distributed in a 96-well plate. After 24 h of static growth at 37 ° C, planktonic cells were removed by inverting the plate onto a stack of paper towels, and the biofilm was washed three times with PBS. After washing, MM 1, MM 5, or MM 6 were added at 2×MIC to the biofilm and incubated statically in the dark for 60 min. The biofilm was then irradiated for 15, 30, or 45 min at 146 mW cm2. For the determination of the total bacterial number, acridine orange solution (2% in H2O) diluted 1:100 in Walpole's buffer (27.2 g L-1 sodium acetate trihydrate, adjusted to pH 4 with glacial acetic acid) was added to the wells.

Experiment [2] has the same test system. Kind of experiment: Biofilm metabolically active cells (ATP). The note with it: 2×MIC, antibiotics 45 min, MMs 15 min + light, vs untreated. The class given is cell-based, Pseudomonas aeruginosa, Staphylococcus aureus. Here is the method:
as §3
For quantification of viable cells in biofilms, following the addition of 100 μL […] of TSB to each well, bacteria were detached from the biofilm by thorough mixing, after which […] of BacTiter-Glo™ reagent, prepared according to the manufacturer's instructions, was added to each well.

As for `C[C@@H](c1ncncc1F)[C@](O)(Cn1cncn1)c1ccc(F)cc1F` [Voriconazole (VRC), Voriconazole], the MIC stood at 0.03 µg/mL in the experiment on C. albicans, 0.125 µg/mL with S. cerevisiae and 0.5 µg/mL in the experiment with A. fumigatus.

As for `CO[C@H]1/C=C/O[C@@]2(C)Oc3c(C)c(O)c4c(O)c(c(/C=N/N5CCN(C)CC5)c(O)c4c3C2=O)NC(=O)/C(C)=C\C=C\[C@H](C)[C@H](O)[C@@H](C)[C@@H](O)[C@@H](C)[C@H](OC(C)=O)[C@@H]1C` [rifampin], the “reduction in total bacterial cell number in biofilm” value in experiment [1] was at most 64%. Also, the “reduction in metabolically active cells in biofilm” value in experiment [2] came out at 18%.

The term MIC denotes the lowest concentration found to suppress growth.
